# From the kinase profiling compilation of Christmann-Franck et al. (2016)
# Tests used:
# Conditions in all cases: compound 10.0 µM
# CAMK2G (human) = CAMK2G (human) (UniProt Q13555)
# CSNK2A1 (human) = CSNK2A1 (human) (UniProt P68400)
# PLK3 (human) = PLK3 (human) (UniProt Q9H4B4)
# AAK1 (human) = AAK1 (human) (UniProt Q2M2I8)
# CLK1 (human) = CLK1 (human) (UniProt P49759)
# ULK1 (human) = ULK1 (human) (UniProt O75385)
# NTRK2 (human) = NTRK2 (human) (UniProt Q16620)
# ADCK4 (human) = ADCK4 (human) (UniProt Q96D53)
# [1] = target: JAK2 JH1 catalytic (human) (UniProt O60674)
# PLK4 (human) = PLK4 (human) (UniProt O00444)
# IRAK1 (human) = IRAK1 (human) (UniProt P51617)
# TLK1 (human) = TLK1 (human) (UniProt Q9UKI8)
# AKT3 (human) = AKT3 (human) (UniProt Q9Y243)
# MYLK2 (human) = MYLK2 (human) (UniProt Q9H1R3)
# MAP4K2 (human) = MAP4K2 (human) (UniProt Q12851)
# [2] = target: TYK2 JH1 catalytic (human) (UniProt P29597)
# MAP4K1 (human) = MAP4K1 (human) (UniProt Q92918)
# WEE1 (human) = WEE1 (human) (UniProt P30291)
# MYLK (human) = MYLK (human) (UniProt Q15746)
# HIPK1 (human) = HIPK1 (human) (UniProt Q86Z02)
# PDGFRA (human) = PDGFRA (human) (UniProt P16234)
# AURKC (human) = AURKC (human) (UniProt Q9UQB9)
# CDK14 (human) = CDK14 (human) (UniProt O94921)
# ACVR2A (human) = ACVR2A (human) (UniProt P27037)
# RPS6KA1 KD2 (human) = RPS6KA1 KD2 (human) (UniProt Q15418)
# TSSK1B (human) = TSSK1B (human) (UniProt Q9BXA7)
# AURKA (human) = AURKA (human) (UniProt O14965)
# MAP3K13 (human) = MAP3K13 (human) (UniProt O43283)
# NEK7 (human) = NEK7 (human) (UniProt Q8TDX7)
# MLTK (human) = MLTK (human) (UniProt Q9NYL2)
# DYRK1B (human) = DYRK1B (human) (UniProt Q9Y463)
# PAK1 (human) = PAK1 (human) (UniProt Q13153)
# RIPK4 (human) = RIPK4 (human) (UniProt P57078)
# PIK3C2G (human) = PIK3C2G (human) (UniProt O75747)
# MAK (human) = MAK (human) (UniProt P20794)
# MAP2K7 (human) = MAP2K7 (human) (UniProt O14733)
# CDC42BPB (human) = CDC42BPB (human) (UniProt Q9Y5S2)
# SNRK (human) = SNRK (human) (UniProt Q9NRH2)
# RPS6KA6 KD1 (human) = RPS6KA6 KD1 (human) (UniProt Q9UK32)
# CASK (human) = CASK (human) (UniProt O14936)
# MAPK9 (human) = MAPK9 (human) (UniProt P45984)
# Sequence of RPS6KA6 KD1 (human) (Q9UK32 whole entry, looked up): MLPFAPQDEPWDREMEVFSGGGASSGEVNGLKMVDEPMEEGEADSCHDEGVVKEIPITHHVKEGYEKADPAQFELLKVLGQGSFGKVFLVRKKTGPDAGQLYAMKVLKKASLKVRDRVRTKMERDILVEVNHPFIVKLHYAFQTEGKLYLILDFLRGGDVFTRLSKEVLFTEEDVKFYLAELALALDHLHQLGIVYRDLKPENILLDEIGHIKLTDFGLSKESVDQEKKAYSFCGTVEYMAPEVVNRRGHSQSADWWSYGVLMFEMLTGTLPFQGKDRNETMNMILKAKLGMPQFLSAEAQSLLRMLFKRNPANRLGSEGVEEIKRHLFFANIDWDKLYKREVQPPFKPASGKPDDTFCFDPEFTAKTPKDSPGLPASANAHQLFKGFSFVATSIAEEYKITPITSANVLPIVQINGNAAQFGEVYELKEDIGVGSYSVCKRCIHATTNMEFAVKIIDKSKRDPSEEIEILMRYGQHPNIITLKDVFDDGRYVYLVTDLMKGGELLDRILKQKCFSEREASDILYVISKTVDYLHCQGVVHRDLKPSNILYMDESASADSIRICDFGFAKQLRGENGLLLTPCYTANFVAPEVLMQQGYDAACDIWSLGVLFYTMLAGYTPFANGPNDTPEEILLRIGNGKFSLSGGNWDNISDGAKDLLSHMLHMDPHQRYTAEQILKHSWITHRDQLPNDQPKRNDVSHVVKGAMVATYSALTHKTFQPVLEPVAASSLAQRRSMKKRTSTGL
# Sequence of CSNK2A1 (human) (P68400 whole entry, looked up): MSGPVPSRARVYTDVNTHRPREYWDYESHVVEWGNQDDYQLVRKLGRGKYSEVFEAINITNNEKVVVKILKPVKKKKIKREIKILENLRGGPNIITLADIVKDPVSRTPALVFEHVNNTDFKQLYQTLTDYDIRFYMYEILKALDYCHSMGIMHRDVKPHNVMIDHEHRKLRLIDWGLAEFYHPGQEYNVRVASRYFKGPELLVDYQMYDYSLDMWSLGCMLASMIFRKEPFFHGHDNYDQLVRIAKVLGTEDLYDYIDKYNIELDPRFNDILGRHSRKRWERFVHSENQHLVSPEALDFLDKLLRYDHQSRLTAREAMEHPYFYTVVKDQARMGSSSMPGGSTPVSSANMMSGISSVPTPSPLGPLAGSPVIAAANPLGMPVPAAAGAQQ
# Sequence of ACVR2A (human) (P27037 whole entry, looked up): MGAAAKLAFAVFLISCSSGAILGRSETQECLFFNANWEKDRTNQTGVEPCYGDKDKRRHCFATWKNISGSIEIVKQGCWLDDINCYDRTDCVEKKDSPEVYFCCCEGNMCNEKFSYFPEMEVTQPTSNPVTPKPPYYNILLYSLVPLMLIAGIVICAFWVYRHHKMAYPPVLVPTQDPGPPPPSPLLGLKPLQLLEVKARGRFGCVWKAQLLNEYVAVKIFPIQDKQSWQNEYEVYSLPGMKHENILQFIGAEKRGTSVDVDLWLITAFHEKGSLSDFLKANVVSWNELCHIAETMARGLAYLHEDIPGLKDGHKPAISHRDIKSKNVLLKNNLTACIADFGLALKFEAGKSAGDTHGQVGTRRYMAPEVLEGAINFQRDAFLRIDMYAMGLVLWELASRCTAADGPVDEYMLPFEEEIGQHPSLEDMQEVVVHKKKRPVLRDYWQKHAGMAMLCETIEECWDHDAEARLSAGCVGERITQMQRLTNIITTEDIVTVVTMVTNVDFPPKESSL
# Sequence of PLK3 (human) (Q9H4B4 whole entry, looked up): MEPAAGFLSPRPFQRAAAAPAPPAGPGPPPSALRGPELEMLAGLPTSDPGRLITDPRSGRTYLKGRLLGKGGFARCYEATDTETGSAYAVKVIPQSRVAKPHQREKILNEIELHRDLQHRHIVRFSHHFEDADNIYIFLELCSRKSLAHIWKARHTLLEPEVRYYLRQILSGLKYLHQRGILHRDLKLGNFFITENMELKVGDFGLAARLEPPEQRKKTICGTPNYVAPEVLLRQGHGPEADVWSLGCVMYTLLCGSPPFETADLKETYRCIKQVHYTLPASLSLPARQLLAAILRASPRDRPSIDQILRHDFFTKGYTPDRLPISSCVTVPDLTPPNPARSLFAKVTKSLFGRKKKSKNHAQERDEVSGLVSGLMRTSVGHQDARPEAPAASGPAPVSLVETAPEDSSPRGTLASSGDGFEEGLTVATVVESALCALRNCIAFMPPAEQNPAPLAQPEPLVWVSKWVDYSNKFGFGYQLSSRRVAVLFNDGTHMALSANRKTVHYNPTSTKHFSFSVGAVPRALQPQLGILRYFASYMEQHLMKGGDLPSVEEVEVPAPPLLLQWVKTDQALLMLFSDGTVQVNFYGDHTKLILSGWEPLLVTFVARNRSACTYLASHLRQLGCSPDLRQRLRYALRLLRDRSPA
# Sequence of MLTK (human) (Q9NYL2 whole entry, looked up): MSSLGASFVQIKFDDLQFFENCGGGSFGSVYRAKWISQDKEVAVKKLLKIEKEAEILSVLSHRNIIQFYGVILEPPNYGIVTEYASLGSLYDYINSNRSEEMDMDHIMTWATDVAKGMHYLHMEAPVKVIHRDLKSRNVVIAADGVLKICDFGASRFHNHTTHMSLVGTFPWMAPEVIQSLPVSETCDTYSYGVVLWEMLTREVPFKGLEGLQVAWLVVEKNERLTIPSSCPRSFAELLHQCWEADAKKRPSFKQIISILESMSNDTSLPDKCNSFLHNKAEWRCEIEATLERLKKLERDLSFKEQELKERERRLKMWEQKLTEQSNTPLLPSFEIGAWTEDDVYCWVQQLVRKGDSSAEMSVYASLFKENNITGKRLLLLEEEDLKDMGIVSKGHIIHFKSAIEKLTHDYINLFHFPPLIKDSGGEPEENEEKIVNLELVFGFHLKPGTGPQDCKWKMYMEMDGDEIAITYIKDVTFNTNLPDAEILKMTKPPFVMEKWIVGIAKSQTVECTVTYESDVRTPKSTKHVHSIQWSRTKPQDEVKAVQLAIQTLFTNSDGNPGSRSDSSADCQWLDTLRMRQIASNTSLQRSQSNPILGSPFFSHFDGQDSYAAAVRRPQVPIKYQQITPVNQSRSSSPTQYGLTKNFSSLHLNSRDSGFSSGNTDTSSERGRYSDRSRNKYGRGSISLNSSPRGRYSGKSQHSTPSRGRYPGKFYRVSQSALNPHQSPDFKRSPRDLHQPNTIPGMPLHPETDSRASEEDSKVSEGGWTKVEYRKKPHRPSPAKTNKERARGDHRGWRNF
# Sequence of MAK (human) (P20794 whole entry, looked up): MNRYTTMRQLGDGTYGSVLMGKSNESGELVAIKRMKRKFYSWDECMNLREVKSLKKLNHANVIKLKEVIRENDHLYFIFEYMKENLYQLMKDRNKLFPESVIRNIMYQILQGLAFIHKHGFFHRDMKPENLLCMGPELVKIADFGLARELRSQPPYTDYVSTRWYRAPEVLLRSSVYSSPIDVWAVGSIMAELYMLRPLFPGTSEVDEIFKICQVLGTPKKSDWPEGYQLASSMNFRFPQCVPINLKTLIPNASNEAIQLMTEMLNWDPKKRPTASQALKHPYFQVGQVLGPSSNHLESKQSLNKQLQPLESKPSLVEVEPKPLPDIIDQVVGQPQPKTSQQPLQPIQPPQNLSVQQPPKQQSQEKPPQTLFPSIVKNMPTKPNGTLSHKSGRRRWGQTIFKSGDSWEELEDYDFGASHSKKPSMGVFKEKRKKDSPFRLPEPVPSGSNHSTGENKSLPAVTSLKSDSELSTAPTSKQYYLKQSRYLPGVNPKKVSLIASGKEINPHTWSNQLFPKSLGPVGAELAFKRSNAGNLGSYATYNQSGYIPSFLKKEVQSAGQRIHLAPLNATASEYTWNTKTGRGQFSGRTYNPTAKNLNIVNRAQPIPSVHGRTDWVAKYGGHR
# Sequence of CASK (human) (O14936 whole entry, looked up): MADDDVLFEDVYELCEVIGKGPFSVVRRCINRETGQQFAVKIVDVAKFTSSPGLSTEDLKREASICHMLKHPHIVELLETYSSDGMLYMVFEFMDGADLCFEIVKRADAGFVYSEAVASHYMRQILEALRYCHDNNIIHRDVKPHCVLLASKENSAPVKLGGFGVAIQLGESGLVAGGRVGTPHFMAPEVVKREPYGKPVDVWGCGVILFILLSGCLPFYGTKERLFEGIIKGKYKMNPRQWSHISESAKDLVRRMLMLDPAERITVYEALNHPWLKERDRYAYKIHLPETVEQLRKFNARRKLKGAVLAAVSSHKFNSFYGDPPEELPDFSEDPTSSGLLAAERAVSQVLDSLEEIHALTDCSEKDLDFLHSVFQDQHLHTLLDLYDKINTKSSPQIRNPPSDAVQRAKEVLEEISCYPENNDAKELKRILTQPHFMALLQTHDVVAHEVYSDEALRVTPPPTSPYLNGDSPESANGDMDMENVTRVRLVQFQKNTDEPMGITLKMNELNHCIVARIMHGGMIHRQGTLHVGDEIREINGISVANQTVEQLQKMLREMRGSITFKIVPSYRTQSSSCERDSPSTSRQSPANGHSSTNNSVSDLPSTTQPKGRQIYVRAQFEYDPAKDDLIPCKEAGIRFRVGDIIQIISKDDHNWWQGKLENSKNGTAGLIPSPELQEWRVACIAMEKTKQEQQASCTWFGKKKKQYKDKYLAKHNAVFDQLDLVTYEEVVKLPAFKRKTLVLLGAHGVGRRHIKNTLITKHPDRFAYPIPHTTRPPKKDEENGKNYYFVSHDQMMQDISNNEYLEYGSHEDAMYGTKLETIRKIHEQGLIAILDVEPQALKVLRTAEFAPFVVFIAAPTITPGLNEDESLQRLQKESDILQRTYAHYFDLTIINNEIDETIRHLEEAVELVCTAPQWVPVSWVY
# Sequence of TSSK1B (human) (Q9BXA7 whole entry, looked up): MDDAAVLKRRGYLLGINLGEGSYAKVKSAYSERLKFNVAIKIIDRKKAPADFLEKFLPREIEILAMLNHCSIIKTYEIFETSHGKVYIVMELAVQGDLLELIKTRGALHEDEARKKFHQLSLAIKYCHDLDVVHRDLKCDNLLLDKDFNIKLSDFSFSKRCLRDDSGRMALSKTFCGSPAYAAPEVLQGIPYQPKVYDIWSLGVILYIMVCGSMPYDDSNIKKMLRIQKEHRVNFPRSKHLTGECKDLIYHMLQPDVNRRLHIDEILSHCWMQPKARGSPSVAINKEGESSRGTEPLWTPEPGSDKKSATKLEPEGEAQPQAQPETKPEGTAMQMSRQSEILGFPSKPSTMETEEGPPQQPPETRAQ
compound,measurement,setting,value
CNC(=O)c1cc(Oc2ccc(NC(=O)Nc3ccc(Cl)c(C(F)(F)F)c3)cc2)cc[n+]1[O-],per cent of control,CAMK2G (human),96%
same,per cent of control,CSNK2A1 (human),94%
same,per cent of control,PLK3 (human),100%
same,per cent of control,AAK1 (human),100%
same,per cent of control,CLK1 (human),46%
same,per cent of control,ULK1 (human),99%
same,per cent of control,NTRK2 (human),2.4%
same,per cent of control,ADCK4 (human),81%
same,per cent of control,[1],68%
same,per cent of control,PLK4 (human),5.2%
same,per cent of control,IRAK1 (human),22%
same,per cent of control,TLK1 (human),60%
same,per cent of control,AKT3 (human),93%
same,per cent of control,MYLK2 (human),8.7%
same,per cent of control,MAP4K2 (human),66%
same,per cent of control,[2],100%
same,per cent of control,MAP4K1 (human),6%
same,per cent of control,WEE1 (human),100%
same,per cent of control,MYLK (human),100%
same,per cent of control,HIPK1 (human),44%
same,per cent of control,PDGFRA (human),0%
same,per cent of control,AURKC (human),15%
same,per cent of control,CDK14 (human),3.8%
same,per cent of control,ACVR2A (human),89%
same,per cent of control,RPS6KA1 KD2 (human),58%
same,per cent of control,TSSK1B (human),100%
same,per cent of control,AURKA (human),26%
same,per cent of control,MAP3K13 (human),68%
same,per cent of control,NEK7 (human),100%
same,per cent of control,MLTK (human),0.85%
same,per cent of control,DYRK1B (human),69%
same,per cent of control,PAK1 (human),100%
same,per cent of control,RIPK4 (human),100%
same,per cent of control,PIK3C2G (human),100%
same,per cent of control,MAK (human),35%
same,per cent of control,MAP2K7 (human),63%
same,per cent of control,CDC42BPB (human),97%
same,per cent of control,SNRK (human),95%
same,per cent of control,RPS6KA6 KD1 (human),97%
same,per cent of control,CASK (human),100%
same,per cent of control,MAPK9 (human),0.05%
CNC(=O)c1cc(Oc2ccc(NC(=O)Nc3ccc(Cl)c(C(F)(F)F)c3)cc2)ccn1,per cent of control,CAMK2G (human),100%
same,per cent of control,CSNK2A1 (human),100%
same,per cent of control,PLK3 (human),100%
same,per cent of control,AAK1 (human),100%
same,per cent of control,CLK1 (human),29%
same,per cent of control,ULK1 (human),89%
same,per cent of control,NTRK2 (human),6.1%
same,per cent of control,ADCK4 (human),90%
same,per cent of control,[1],70%
same,per cent of control,PLK4 (human),46%
same,per cent of control,IRAK1 (human),76%
same,per cent of control,TLK1 (human),74%
same,per cent of control,AKT3 (human),90%
same,per cent of control,MYLK2 (human),22%
same,per cent of control,MAP4K2 (human),93%
same,per cent of control,[2],100%
same,per cent of control,MAP4K1 (human),19%
same,per cent of control,WEE1 (human),100%
same,per cent of control,MYLK (human),100%
same,per cent of control,HIPK1 (human),17%
same,per cent of control,PDGFRA (human),0%
same,per cent of control,AURKC (human),12%
same,per cent of control,CDK14 (human),3.1%
same,per cent of control,ACVR2A (human),100%
same,per cent of control,RPS6KA1 KD2 (human),77%
same,per cent of control,TSSK1B (human),98%
same,per cent of control,AURKA (human),83%
same,per cent of control,MAP3K13 (human),88%
same,per cent of control,NEK7 (human),100%
same,per cent of control,MLTK (human),0.6%
same,per cent of control,DYRK1B (human),67%
same,per cent of control,PAK1 (human),100%
same,per cent of control,RIPK4 (human),100%
same,per cent of control,PIK3C2G (human),100%
same,per cent of control,MAK (human),38%
same,per cent of control,MAP2K7 (human),92%
same,per cent of control,CDC42BPB (human),100%
same,per cent of control,SNRK (human),100%
same,per cent of control,RPS6KA6 KD1 (human),100%
same,per cent of control,CASK (human),100%
same,per cent of control,MAPK9 (human),21%
